Source: US8748418B2, “1,4-oxazepines as BACE1 and/or BACE2 inhibitors” (Hoffmann-La Roche Inc., priority 2011, dated 2014)

Experiments:
[1] = target: BACE1 (Homo sapiens (Human), UniProt P56817); assay: Cellular Aβ-lowering assay (Aβ40 ELISA in HEK293 cells expressing human APP695); type: cell-based; details: HEK293 cells stably transfected with human APP wt (APP695), Aβ40 in supernatant after 18-20 hrs
Method: Cellular Aβ-Lowering Assay:
Human HEK293 cells which are stably transfected with a vector expressing a cDNA of the human APP wt gene (APP695) were used to assess the potency of the compounds in a cellular assay. The cells were seeded in 96-well microtiter plates in cell culture medium (Iscove, plus 10% (v/v) fetal bovine serum, glutamine, penicillin/streptomycin) to about 80% confluence and the compounds were added at a 10× concentration in 1/10 volume of medium without FCS containing 8% DMSO (final concentration of DMSO was kept at 0.8% v/v). After 18-20 hrs incubation at 37° C. and 5% CO2 in a humidified incubator the culture supernatant was harvested for the determination of Aβ40 concentrations. 96 well ELISA plates (e.g., Nunc MaxiSorb) were coated with monoclonal antibody which specifically recognize the C-terminal end of Aβ40 (Brockhaus et al., NeuroReport 9, 1481-1486; 1998). After blocking of non-specific binding sites with e.g. 1% BSA and washing, the culture supernatants were added in suitable dilutions together with a horseradish peroxidase-coupled Aβ detection antibody (e.g., antibody 4G8, Senetek, Maryland Heights, Mo.) and incubated for 5 to 7 hrs. Subsequently the wells of the microtiter plate were washed extensively with Tris-buffered saline containing 0.05% Tween 20 and the assay was developed with tetramethylbenzidine/H2O2 in citric acid buffer. After stopping the reaction with one volume 1NH2SO4 the reaction was measured in an ELISA reader at 450 nm wavelength. The concentrations of Aβ in the culture supernatants were calculated from a standard curve obtained with known amounts of pure Aβ peptide.

[2] = target: BACE2 (Homo sapiens (Human), UniProt Q9Y5Z0); assay: Immunofluorescence Resonance Energy Transfer (FRET) assay for BACE2 inhibition; type: biochemical; details: TMEM27-based peptide substrate 5 μM, pH 4.5
Method: Immunofluorescence Resonance Energy Transfer (FRET) Assay for BACE2 Inhibition:
BACE2 enzyme ectodomain (derived from plasmid “pET17b-T7-hu proBACE2”) was prepared as described in Ostermann et al., “Crystal Structure of Human BACE2 in Complex with a Hydroxyethylamine Transition-state Inhibitor”, Journal of Molecular Biology 2006, 355, 249-261. The pro-enzyme was stored at 4° C. at a concentration of 70 μg/ml.
The FRET assay was performed essentially as described in Grüninger-Leitch et al., Journal of Biological Chemistry (2002) 277(7) 4687-93 (“Substrate and inhibitor profile of BACE (beta-secretase) and comparison with other mammalian aspartic proteases”). In summary, a peptide is designed that is cleaved by the protease. The peptide is labelled with dabcyl at the N terminus and Lucifer Yellow at the C-terminus, such that for an intact peptide the Lucifer Yellow fluorescence is quenched by the dabcyl. When the peptide is cut by BACE2, the quenching is removed and a fluorescent signal is generated.
The assay was performed as described in Grueninger et al. 2002 at pH 4.5 using a substrate concentration of 5 μM. A FRET peptide based on the TMEM27 sequence was devised. dabcyl-[…]-LucY (SEQ ID NO: 1).
The assay readout is the initial rate of change of fluorescence intensity giving a relative measure of BACE2 activity. Small values correspond to high inhibition and larger values to low inhibition. […] IC50 values were determined using these assay values generated for a range of inhibitor concentrations and the curve fitting software XLfit (IDBS) using the Sigmoidal Dose-Response Model.

BACE1, sequence (P56817 46-501): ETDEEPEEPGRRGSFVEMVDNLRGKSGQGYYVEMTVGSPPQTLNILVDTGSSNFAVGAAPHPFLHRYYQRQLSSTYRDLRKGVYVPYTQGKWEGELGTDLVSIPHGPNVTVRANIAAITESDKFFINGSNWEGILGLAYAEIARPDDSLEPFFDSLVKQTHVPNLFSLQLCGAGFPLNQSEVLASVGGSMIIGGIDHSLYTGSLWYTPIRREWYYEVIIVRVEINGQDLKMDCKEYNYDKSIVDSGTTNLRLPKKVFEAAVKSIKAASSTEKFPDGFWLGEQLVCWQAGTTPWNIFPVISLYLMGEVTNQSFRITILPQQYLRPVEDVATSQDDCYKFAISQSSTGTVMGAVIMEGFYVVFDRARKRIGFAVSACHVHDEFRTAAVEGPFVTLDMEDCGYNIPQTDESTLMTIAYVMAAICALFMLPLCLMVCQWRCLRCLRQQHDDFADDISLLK
BACE2, sequence (Q9Y5Z0 63-473): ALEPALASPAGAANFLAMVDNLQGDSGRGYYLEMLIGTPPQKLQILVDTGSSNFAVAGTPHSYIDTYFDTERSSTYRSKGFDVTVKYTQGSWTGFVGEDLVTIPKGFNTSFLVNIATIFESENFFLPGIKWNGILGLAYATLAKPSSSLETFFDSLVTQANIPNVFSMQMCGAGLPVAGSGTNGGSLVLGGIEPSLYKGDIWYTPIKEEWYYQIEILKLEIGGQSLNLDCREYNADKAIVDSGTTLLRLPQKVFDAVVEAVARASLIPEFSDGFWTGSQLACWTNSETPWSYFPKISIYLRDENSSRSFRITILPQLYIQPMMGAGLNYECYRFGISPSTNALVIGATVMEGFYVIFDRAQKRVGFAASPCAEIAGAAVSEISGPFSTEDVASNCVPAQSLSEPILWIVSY

Structure (SMILES) | IC50 [1] [µM] | IC50 [2] [µM]
CC1(C)OCC(N)=N[C@](C)(c2cc(Nc3ccc(Cl)nc3)ccc2F)C1(F)F [Example 22, (R)-5-[5-(6-Chloro-pyridin-3-ylamino)-2-fluoro-phenyl]-6,6-difluoro-5,7,7-trimethyl-2,5,6,7-tetrahydro-[1,4]oxazepin-3-ylamine] | 0.37 | 1.77
CC1(C)OCC(N)=N[C@](C)(c2cc(Nc3cncc(F)c3)ccc2F)C1(F)F [Example 23, (R)-6,6-Difluoro-5-[2-fluoro-5-(5-fluoro-pyridin-3-ylamino)-phenyl]-5,7,7-trimethyl-2,5,6,7-tetrahydro-[1,4]oxazepin-3-ylamine] | 0.44 | 1.36
CC1(C)OCC(N)=N[C@](C)(c2cc(Nc3cccnc3)ccc2F)C1(F)F [Example 24, (R)-6,6-Difluoro-5-[2-fluoro-5-(pyridin-3-ylamino)-phenyl]-5,7,7-trimethyl-2,5,6,7-tetrahydro-[1,4]oxazepin-3-ylamine] | 1.1 | 0.94
COc1ccc(Nc2ccc(F)c([C@@]3(C)N=C(N)COC(C)(C)C3(F)F)c2)cn1 [Example 25, (R)-6,6-Difluoro-5-[2-fluoro-5-(6-methoxy-pyridin-3-ylamino)-phenyl]-5,7,7-trimethyl-2,5,6,7-tetrahydro-[1,4]oxazepin-3-ylamine] | 0.41 | 1.63
CC1(C)OCC(N)=N[C@](C)(c2cc(Nc3ccc(OCC(F)(F)F)nc3)ccc2F)C1(F)F [Example 28, (R)-6,6-Difluoro-5-{2-fluoro-5-[6-(2,2,2-trifluoro-ethoxy)-pyridin-3-ylamino]-phenyl}-5,7,7-trimethyl-2,5,6,7-tetrahydro-[1,4]oxazepin-3-ylamine] | 12.7 | 1.49
